The nature of series [1]: Nanosphere formation by spontaneous emulsification; hydrodynamic size and polydispersity by dynamic light scattering. The note with it: 25 mg/5 mL acetone into 10 mL 0.25% w/v Pluronic F-68 in water. Type of series: physicochemical. How it is done: Nanospheres were prepared according to the method using spontaneous emulsification with slight modification. Briefly, 25 mg of the compounds were dissolved in acetone (5 mL). The organic solution was poured under moderate stirring on a magnetic plate into an aqueous phase prepared by dissolving 25 mg of Pluronic F68 in 10 mL bidistilled water (0.25% w/v). Following 15 min of magnetic stirring, the acetone was removed under reduced pressure at room temperature. The nanospheres were filtered through 0.45 μm hydrophilic syringe filter and stored at 4° C. The hydrodynamic size measurement and size distribution of the nanospheres was performed by the dynamic light scattering (DLS) using a Coulter N4-Plus Submicron Particle Sizer (Coulter Corporation, Miami, Fla.). The nanospheres were purified by centrifuging three times at 20,000×g for 30 min at 25° C. and resuspending each time in the same volume of deionized water. […] The size was assessed on three separate batches of the nanosphere formulation. The recovery yield was calculated as follows: RY (%)=(mass of the mALA-containing compounds recovered/mass of the mALA-containing compounds used in formulation)×100%. […] The solution was analyzed for the compounds by RP-HPLC. Separation was performed using 80% acetonitrile (0.1% trifluoroacetic acid, TFA) as mobile phase and the eluent was monitored using UV detector at 330 nm. […]

Series [2] in a line: DPPH radical scavenging assay, Method A (dissolved DPPH). The format is biochemical. Conditions: Method A: 50 μM DPPH dissolved in ethanol/water; violet to pale yellow. On the procedure: Method A: 5 mL of 100 μM DPPH solution in ethanol was mixed with 5 mL of water, resulting in a final concentration of 50 μM for DPPH. Trolox and ascorbic acid were dissolved in 100 mM sodium phosphate buffer (pH 7.5, 2.5 mM). The concentration of α-tocopherol in nanospheres was adjusted to 2.5 mM. The predetermined amount of Trolox, ascorbic acid solution and nanospheres were added to the DPPH solution using Hamilton syringe carefully to the bottom of 20 mL glass bottle to minimize the premature mixing. After gentle mixing, pictures were taken using digital camera (50000 pxitex).
The antioxidant capability of the nanospheres was assessed by the scavenging activity of DPPH free radical. The DPPH radical scavenging assay is often used as a model for the measurement of lipid radial scavenging activity of antioxidant compounds. […] The DPPH radical scavenging assay is usually performed in a 50:50 mixture of water and organic solvents, commonly ethanol or dimethyl suloxide, in which the DPPH radical is completely dissolved. In this condition (Method A), the violet color of DPPH radical solution converted instantaneously to the pale yellow color, which is indicative of an instantaneous DPPH radical scavenging by the nanospheres (FIG. 6a, Method A).
In general terms: Loss of DPPH colour is used to gauge radical scavenging.

Series [3] is described as follows: DPPH radical scavenging assay, Method B (fine dispersed DPPH suspension). Conditions: Method B: DPPH suspension in water. The format is biochemical. On the procedure:
Method B: 400 μL of 1.25 mM DPPH solution in ethanol was added to 9500 μL of water to give a fine dispersed DPPH suspension. Pictures were taken as described above.
In the method B (FIG. 6a), 400 μL of 1.25 mM DPPH solution in ethanol was added to 9500 μL of water to give a fine dispersed DPPH suspension with the particle size of 164±26 nm (polydispersity index 0.03).

As for `O=C(CCCCC1CCSS1)OCCOCCOCCOCCOC(=O)CCCCC1CCSS1` (stereo not drawn) [Compound 4a, 2×Lipoic Acid/Tetraethylene Glycol], the “formation of stable nanospheres” value in series [1] is on record as “failure”. Turning to `O=C(CCCCC1CCSS1)OCCN1CCN(CCOC(=O)CCCCC2CCSS2)CC1` (stereo not drawn) [Compound 7a, 2×Lipoic acid/1,4-Bis(2-hydroxyethyl)-piperazine], the “formation of stable nanospheres” value in series [1] is listed as “failure”. Turning to `Cc1c(C)c2c(c(C)c1O)CCC(C)(C(=O)O)O2` (stereo not drawn) [Trolox], the “DPPH radical scavenging (color change)” value is “complete and occurred instantaneously” in series [2]; “much less color changes” in series [3]. In the case of `O=C1O[C@H]([C@@H](O)CO)C(O)=C1O` [ascorbic acid], the “DPPH radical scavenging (color change)” value in series [2] is “complete and occurred instantaneously”; in series [3], “much less color changes”.

For the origin of these results see patent publication US9028874B2, “Antioxidant nanosphere comprising [1,2]-dithiolane moieties” (Cedars-Sinai Medical Center, priority 2008, dated 2015).
